This experiment concerns P388 leukemia ip, CD2F1 mice, survival T/C. The experiment is described as follows: NCI In Vivo Anticancer Drug Screen. Data for tumor model P388 Leukemia (intraperitoneal) in CD2F1 (CDF1) mice. To be noted: endpoint: median survival time, higher = longer survival. The method in brief:
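Mice carrying the transplanted tumor received test compound or vehicle. Survival was recorded in each group, and the value is the treated-group measurement divided by that of the vehicle-treated control group.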

The mark [1] stands for this setting: dose: 50.0 mg/kg/injection, schedule: Q01DX005 (ip), vehicle: saline with Tween-80.
Setting [2] is: dose: 60.0 mg/kg/injection, schedule: Q01DX005 (ip), vehicle: saline with Tween-80.
Where [3] appears, read: dose: 120.0 mg/kg/injection, schedule: Q01DX005 (ip), vehicle: saline with Tween-80.
The mark [4] stands for this setting: dose: 240.0 mg/kg/injection, schedule: Q01DX005 (ip), vehicle: saline with Tween-80.
[5] abbreviates: dose: 50.0 mg/kg/injection, schedule: Q01DX009 (ip), vehicle: saline with Tween-80.
[6] abbreviates: dose: 100.0 mg/kg/injection, schedule: Q04DX002 (ip), vehicle: saline with Tween-80.
Setting [7] is: dose: 200.0 mg/kg/injection, schedule: Q04DX002 (ip), vehicle: saline with Tween-80.
[8] abbreviates: dose: 400.0 mg/kg/injection, schedule: Q04DX002 (ip), vehicle: saline with Tween-80.
[9] abbreviates: dose: 25.0 mg/kg/injection, schedule: Q01DX009 (ip), vehicle: other.
The mark [10] stands for this setting: dose: 50.0 mg/kg/injection, schedule: Q01DX009 (ip), vehicle: other.
Setting [11] is: dose: 100.0 mg/kg/injection, schedule: Q01DX009 (ip), vehicle: other.
[12] abbreviates: dose: 200.0 mg/kg/injection, schedule: Q01DX009 (ip), vehicle: other.
Where [13] appears, read: dose: 100.0 mg/kg/injection, schedule: Q04DX003 (ip), vehicle: saline.
[14] abbreviates: dose: 200.0 mg/kg/injection, schedule: Q04DX003 (ip), vehicle: saline.
Setting [15] is: dose: 400.0 mg/kg/injection, schedule: Q04DX003 (ip), vehicle: saline.

Several values for one entry are separate records, joined by “and”; a condition that tells them apart may be missing. Equal values may be shown once. Inconclusive results and toxic doses are left out.

On to `[Se]=P(c1ccccc1)(c1ccccc1)N1CC1`, for which the T/C is, setting by setting: (dose: 12.5 mg/kg/injection, schedule: Q01DX001 (ip), vehicle: Klucel (hydroxypropylcellulose) (HPC)) 99 % of control; (dose: 25.0 mg/kg/injection, schedule: Q01DX001 (ip), vehicle: Klucel (hydroxypropylcellulose) (HPC)) 104 % of control; (dose: 50.0 mg/kg/injection, schedule: Q01DX001 (ip), vehicle: Klucel (hydroxypropylcellulose) (HPC)) 101 % of control.
Turning to `C[N+](C)=NC1CCC(C(C)(C)C)CC1` (stereo not given), the T/C is, setting by setting: (dose: 12.5 mg/kg/injection, schedule: Q01DX005 (ip), vehicle: saline with Tween-80) 99 % of control; (dose: 25.0 mg/kg/injection, schedule: Q01DX005 (ip), vehicle: saline with Tween-80) 99 % of control; under setting [1], 100 % of control.
On to `COc1ccc2c(N3CCN(C(=O)C(Cl)(Cl)Cl)CC3)cc(C)nc2c1`, for which the T/C runs as follows: under setting [2], 103 % of control; under setting [3], 104 % of control; under setting [4], 102 % of control.
In the case of `C=C1N(c2nc(Cl)nc(Cl)n2)c2ccccc2C1(C)C`, the T/C was 113 % of control (dose: 12.5 mg/kg/injection, schedule: Q01DX009 (ip), vehicle: saline with Tween-80); 104 % of control (dose: 25.0 mg/kg/injection, schedule: Q01DX009 (ip), vehicle: saline with Tween-80); 124 % of control and 86 % of control under setting [5].
On to `CCN(CC(O)CN(CC1CO1)c1ccccc1)c1ccccc1` (stereo not given), for which the T/C by setting is: under setting [6], 100 % of control; under setting [7], 94 % of control; under setting [8], 101 % of control.
For `NC(=S)N/N=C/c1cccc(CC(O)(C(F)(F)F)C(F)(F)F)n1`, the T/C is 100 % of control (dose: 12.5 mg/kg/injection, schedule: Q04DX003 (ip), vehicle: saline with Tween-80) and 87 % of control (dose: 25.0 mg/kg/injection, schedule: Q04DX003 (ip), vehicle: saline with Tween-80).
As to `Brc1cc2c(cc1C=Nc1ccc(OCc3ccccc3)cc1)OCO2`, the T/C is, setting by setting: under setting [9], 98 % of control; under setting [10], 103 % of control; under setting [11], 97 % of control; under setting [12], 95 % of control; (dose: 400.0 mg/kg/injection, schedule: Q01DX009 (ip), vehicle: other) 86 % of control.
Consider `NC(=S)NN=C(C1CC1)C1CC1`, for which the T/C by setting is: (dose: 6.25 mg/kg/injection, schedule: Q01DX005 (ip), vehicle: Klucel (hydroxypropylcellulose) (HPC)) 98 % of control; (dose: 12.5 mg/kg/injection, schedule: Q01DX005 (ip), vehicle: Klucel (hydroxypropylcellulose) (HPC)) 97 % of control.
On to `COc1cccc2c1[C@H]1CO[C@H]3C4C[C@H](C(=O)O)C([C@@H](C2)N13)N4C` (stereo not given in full), for which the T/C runs as follows: (dose: 0.31 mg/kg/injection, schedule: Q01DX005 (ip), vehicle: water) 112 % of control; (dose: 0.62 mg/kg/injection, schedule: Q01DX005 (ip), vehicle: water) 113 % of control and 121 % of control; (dose: 1.25 mg/kg/injection, schedule: Q01DX005 (ip), vehicle: water) 116 % of control; (dose: 10.0 mg/kg/injection, schedule: Q01DX005 (ip), vehicle: water) 165 % of control and 195 % of control and 247 % of control; (dose: 20.0 mg/kg/injection, schedule: Q01DX005 (ip), vehicle: water) 247 % of control.
Regarding `Cn1c2nc(-[n+]3cccc(CO)c3)nc-2c([O-])n(C)c1=O`, the T/C is 103 % of control under setting [13], 99 % of control under setting [14] and 103 % of control under setting [15].
On to `O=C1CSC(=S)N1/N=C/c1ccc(Cl)c(Cl)c1`, for which the T/C was 100 % of control (dose: 1.56 mg/kg/injection, schedule: Q01DX009 (ip), vehicle: saline with Tween-80); 110 % of control (dose: 3.13 mg/kg/injection, schedule: Q01DX009 (ip), vehicle: saline with Tween-80); 120 % of control (dose: 6.25 mg/kg/injection, schedule: Q01DX009 (ip), vehicle: saline with Tween-80).
Take `C[As](C)SC(CO)C1OC2OC(C)(C)OC2C1O` (stereo not given): under “dose: 50.0 mg/kg/injection, schedule: Q01DX009 (ip), vehicle: saline + alcohol”, the T/C is 108 % of control.
As for `CC(C)(C)CC(C)(C)c1ccc(OCc2ccccc2Cl)cc1`, the T/C is, setting by setting: under setting [5], 98 % of control; (dose: 100.0 mg/kg/injection, schedule: Q01DX009 (ip), vehicle: saline with Tween-80) 95 % of control; (dose: 200.0 mg/kg/injection, schedule: Q01DX009 (ip), vehicle: saline with Tween-80) 100 % of control.
With `CC(C)(CCC#N)C1NC(C(=O)O)CS1` (stereo not given), the T/C (dose: 50.0 mg/kg/injection, schedule: Q01DX009 (ip), vehicle: saline) was 102 % of control; the T/C (dose: 100.0 mg/kg/injection, schedule: Q01DX009 (ip), vehicle: saline) is 99 % of control; the T/C (dose: 200.0 mg/kg/injection, schedule: Q01DX009 (ip), vehicle: saline) is 87 % of control.
For `CS(=O)(=O)Nc1ccc(Nc2c3ccccc3nc3cc([N+](=O)[O-])ccc23)cc1`, the T/C is 121 % of control (dose: 0.09 mg/kg/injection, schedule: Q01DX009 (ip), vehicle: saline with Tween-80); 169 % of control (dose: 0.75 mg/kg/injection, schedule: Q01DX009 (ip), vehicle: saline with Tween-80); 169 % of control (dose: 1.5 mg/kg/injection, schedule: Q01DX009 (ip), vehicle: saline with Tween-80); 177 % of control (dose: 3.0 mg/kg/injection, schedule: Q01DX009 (ip), vehicle: saline with Tween-80).
Take `C[P+](C)(C)C`: the T/C reads like this: under setting [2], 87 % of control; under setting [3], 93 % of control.
In the case of `Cn1c(Cl)cc2nc3ccccc3n2c1=O`, the T/C under setting [2] is 96 % of control, the T/C under setting [3] is 94 % of control and the T/C under setting [4] is 100 % of control.
Consider `CCOc1ccc(C(C)c2cc3c(cc2OCC)OCO3)cc1C` (stereo not given), for which the T/C (dose: 25.0 mg/kg/injection, schedule: Q01DX005 (ip), vehicle: Klucel (hydroxypropylcellulose) (HPC)) was 94 % of control; the T/C (dose: 50.0 mg/kg/injection, schedule: Q01DX005 (ip), vehicle: Klucel (hydroxypropylcellulose) (HPC)) was 110 % of control and 116 % of control and 97 % of control; the T/C (dose: 100.0 mg/kg/injection, schedule: Q01DX005 (ip), vehicle: Klucel (hydroxypropylcellulose) (HPC)) is 101 % of control and 119 % of control; the T/C (dose: 200.0 mg/kg/injection, schedule: Q01DX005 (ip), vehicle: Klucel (hydroxypropylcellulose) (HPC)) is 114 % of control.
With `CN(CS(=O)(=O)c1ccccc1)CS(=O)(=O)c1ccccc1`, the T/C was 110 % of control (dose: 60.0 mg/kg/injection, schedule: Q01DX005 (ip), vehicle: Klucel (hydroxypropylcellulose) (HPC)); 105 % of control (dose: 120.0 mg/kg/injection, schedule: Q01DX005 (ip), vehicle: Klucel (hydroxypropylcellulose) (HPC)); 108 % of control (dose: 240.0 mg/kg/injection, schedule: Q01DX005 (ip), vehicle: Klucel (hydroxypropylcellulose) (HPC)).
As for `CCCCCCC[CH2][Sn]([Cl])([Cl])[Cl]`, the T/C is 98 % of control under setting [13], 102 % of control under setting [14] and 104 % of control under setting [15].
As for `COc1ccc(C(=O)OC2(C)CC(C)(C)N=N2)cc1` (stereo not given), the T/C runs as follows: (dose: 12.5 mg/kg/injection, schedule: Q01DX009 (ip), vehicle: other) 105 % of control; under setting [9], 108 % of control; under setting [10], 108 % of control; under setting [11], 108 % of control; under setting [12], 108 % of control.
`NC(=S)N/N=C/c1c(Br)n(-c2ccccc2)c2ccccc12`: the T/C runs as follows: (dose: 100.0 mg/kg/injection, schedule: Q01DX001 (ip), vehicle: Klucel (hydroxypropylcellulose) (HPC)) 94 % of control; (dose: 200.0 mg/kg/injection, schedule: Q01DX001 (ip), vehicle: Klucel (hydroxypropylcellulose) (HPC)) 98 % of control; (dose: 400.0 mg/kg/injection, schedule: Q01DX001 (ip), vehicle: Klucel (hydroxypropylcellulose) (HPC)) 91 % of control.
For `O=C(C(c1ccccc1)c1ccccc1)N1CCCCC1c1ccccc1` (stereo not given), the T/C under setting [1] is 102 % of control; the T/C (dose: 100.0 mg/kg/injection, schedule: Q01DX005 (ip), vehicle: saline with Tween-80) was 92 % of control; the T/C (dose: 200.0 mg/kg/injection, schedule: Q01DX005 (ip), vehicle: saline with Tween-80) is 97 % of control.
In the case of `CCOC(=O)c1ccc(N=NN(C)CC2OC3OC(C)(C)OC3C2OC)cc1` (stereo not given), the T/C under setting [6] is 98 % of control, the T/C under setting [7] was 98 % of control and the T/C under setting [8] was 102 % of control.

Values taken from PubChem BioAssay AID330 (DTP/NCI, 2004).
